According to ChEMBL document CHEMBL4354878, “Structure-Based Bioisosterism Yields HIV-1 NNRTIs with Improved Drug-Resistance Profiles and Favorable Pharmacokinetic Properties” (J Med Chem, 2020):
Values after ≈ are worked out from the molar mass of the structure shown.

Columns and labels:
[1] = test system: Human immunodeficiency virus 1; test: Antiviral activity against HIV1 3B infected in human MT4 cells grown under 30 passages in presence of (E)-4-((4-((4-(4-(2-Cyanovinyl)-2,6-dimethylphenoxy)thieno[2,3- d]pyrimidin-2-yl)amino)piperidin-1-yl)methyl)benzenesulfonamide assessed as protection against virus-induced cytopathic effect incubated for 5 days by MTT assay; type: functional, organism-based; details: Human immunodeficiency virus 1, 3B, MT4, 120 h
[2] = test system: Human immunodeficiency virus 1; test: Antiviral activity against HIV1 3B infected in human MT4 cells grown under 30 passages in presence of 4-[[4-[[4-(4-cyano-2,6-dimethylphenoxy)thieno[3,2-d]pyrimidin-2-yl]amino]-1-piperidyl]methyl]benzenesulfonamide assessed as protection against virus-induced cytopathic effect incubated for 5 days by MTT assay; type: functional, organism-based; details: Human immunodeficiency virus 1, 3B, MT4, 120 h
[3] = Solubility of the compound in pH 7.4 buffer by HPLC analysis
[4] = Solubility of the compound in pH 2.0 buffer by HPLC analysis
[5] = Solubility of the compound in pH 7.0 buffer by HPLC analysis
[6] = test system: Human immunodeficiency virus 1; test: Antiviral activity against HIV1 3B infected in human MT4 cells grown under 30 passages in presence of 4-[[4-[[4-[4-[2-cyanovinyl]-2,6-dimethylphenoxy]thieno[3,2-d]pyrimidin-2-yl]amino]-1-piperidyl]methyl]benzenesulfonamide assessed as protection against virus-induced cytopathic effect incubated for 5 days by MTT assay; type: functional, organism-based; details: Human immunodeficiency virus 1, 3B, MT4, 120 h
[7] = test system: Human immunodeficiency virus 1; test: Antiviral activity against HIV1 3B infected in human MT4 cells grown under 30 passages in absence of test compound assessed as protection against virus-induced cytopathic effect incubated for 5 days by MTT assay; type: functional, organism-based; details: Human immunodeficiency virus 1, 3B, MT4, 120 h
[8] = test system: Human immunodeficiency virus 1; test: Resistance index, ratio of EC50 for antiviral activity against HIV1 3B infected in human MT4 cells grown under 30 passages in presence of (E)-4-((4-((4-(4-(2-Cyanovinyl)-2,6-dimethylphenoxy)thieno[2,3- d]pyrimidin-2-yl)amino)piperidin-1-yl)methyl)benzenesulfonamide to EC50 for antiviral activity against HIV1 3B infected in human MT4 cells; type: functional
[9] = test system: Human immunodeficiency virus 1; test: Resistance index, ratio of EC50 for antiviral activity against HIV1 3B infected in human MT4 cells grown under 30 passages in presence of 4-[[4-[[4-(4-cyano-2,6-dimethylphenoxy)thieno[3,2-d]pyrimidin-2-yl]amino]-1-piperidyl]methyl]benzenesulfonamide to EC50 for antiviral activity against HIV1 3B infected in human MT4 cells; type: functional
[10] = test system: Human immunodeficiency virus 1; test: Resistance index, ratio of EC50 for antiviral activity against HIV1 3B infected in human MT4 cells grown under 30 passages in presence of 4-[[4-[[4-[4-[2-cyanovinyl]-2,6-dimethylphenoxy]thieno[3,2-d]pyrimidin-2-yl]amino]-1-piperidyl]methyl]benzenesulfonamide to EC50 for antiviral activity against HIV1 3B infected in human MT4 cells; type: functional
[11] = test system: Human immunodeficiency virus 1; test: Antiviral activity against HIV1 expressing RT Y188L mutant infected in human MT4 cells assessed as protection against virus-induced cytopathic effect incubated for 5 days by MTT assay; type: functional, organism-based; details: Human immunodeficiency virus 1, MT4, 120 h
[12] = test system: Human immunodeficiency virus 1; test: Antiviral activity against HIV1 expressing RT L100I mutant infected in human MT4 cells assessed as protection against virus-induced cytopathic effect incubated for 5 days by MTT assay; type: functional, organism-based; details: Human immunodeficiency virus 1, MT4, 120 h
[13] = Aqueous solubility of the compound in pH 7 buffer; type: physicochemical
[14] = test system: Human immunodeficiency virus 1; test: Antiviral activity against HIV1 expressing RT Y181C mutant infected in human MT4 cells assessed as protection against virus-induced cytopathic effect incubated for 5 days by MTT assay; type: functional, organism-based; details: Human immunodeficiency virus 1, MT4, 120 h
[15] = test system: Human immunodeficiency virus 1; test: Antiviral activity against HIV1 expressing RT K103N mutant infected in human MT4 cells assessed as protection against virus-induced cytopathic effect incubated for 5 days by MTT assay; type: functional, organism-based; details: Human immunodeficiency virus 1, MT4, 120 h
[16] = Selectivity index, ratio of CC50 for human MT4 cells to EC50 for antiviral activity against HIV1 3B infected in human MT4 cells
MT4 = test: Cytotoxicity against human MT4 cells assessed as reduction in cell viability incubated for 5 days by MTT assay; type: functional; details: MT4, 120 h
[17] = test system: Human immunodeficiency virus 1; test: Antiviral activity against HIV1 3B infected in human MT4 cells assessed as protection against virus-induced cytopathic effect incubated for 5 days by MTT assay; type: functional, organism-based; details: Human immunodeficiency virus 1, 3B, MT4, 120 h
[18] = test system: Human immunodeficiency virus 1; test: Antiviral activity against HIV1 RES056 infected in human MT4 cells assessed as protection against virus-induced cytopathic effect incubated for 5 days by MTT assay; type: functional, organism-based; details: Human immunodeficiency virus 1, RES056, MT4, 120 h
[19] = Selectivity index, ratio of CC50 for human MT4 cells to EC50 for antiviral activity against HIV1 RES056 infected in human MT4 cells
[20] = test system: Human immunodeficiency virus 1; type: functional, organism-based; details: Human immunodeficiency virus 1, MT4, 120 h
[21] = test system: Human immunodeficiency virus 1; test: Antiviral activity against HIV1 expressing RT E138K mutant infected in human MT4 cells assessed as protection against virus-induced cytopathic effect incubated for 5 days by MTT assay; type: functional, organism-based; details: Human immunodeficiency virus 1, MT4, 120 h
[22] = target: Human immunodeficiency virus type 1 reverse transcriptase (Human immunodeficiency virus 1, UniProt Q72547, E138K); test: Inhibition of HIV1 RT E138K mutant in presence of reconstituted template and viral nucleotides [digoxigenin (DIG)-dUTP, biotin-dUTP and dTTP] incubated for 1 hr by ELISA method
[23] = target: Human immunodeficiency virus type 1 reverse transcriptase (Human immunodeficiency virus 1, UniProt Q72547, L100I); test: Inhibition of HIV1 RT L100I mutant in presence of reconstituted template and viral nucleotides [digoxigenin (DIG)-dUTP, biotin-dUTP and dTTP] incubated for 1 hr by ELISA method
[24] = target: Human immunodeficiency virus type 1 reverse transcriptase (Human immunodeficiency virus 1, UniProt Q72547, K103N); test: Inhibition of HIV1 RT K103N mutant in presence of reconstituted template and viral nucleotides [digoxigenin (DIG)-dUTP, biotin-dUTP and dTTP] incubated for 1 hr by ELISA method
[25] = target: Human immunodeficiency virus type 1 reverse transcriptase (Human immunodeficiency virus 1, UniProt Q72547, Y188L); test: Inhibition of HIV1 RT Y188L mutant in presence of reconstituted template and viral nucleotides [digoxigenin (DIG)-dUTP, biotin-dUTP and dTTP] incubated for 1 hr by ELISA method
[26] = target: Human immunodeficiency virus type 1 reverse transcriptase (Human immunodeficiency virus 1, UniProt Q72547, Y181C); test: Inhibition of HIV1 RT Y181C mutant in presence of reconstituted template and viral nucleotides [digoxigenin (DIG)-dUTP, biotin-dUTP and dTTP] incubated for 1 hr by ELISA method
[27] = target: Human immunodeficiency virus type 1 reverse transcriptase (Human immunodeficiency virus 1, UniProt Q72547, K103N/Y181C); test: Inhibition of HIV1 RT K103N/Y181C mutant in presence of reconstituted template and viral nucleotides [digoxigenin (DIG)-dUTP, biotin-dUTP and dTTP] incubated for 1 hr by ELISA method
[28] = target: Human immunodeficiency virus type 1 reverse transcriptase (Human immunodeficiency virus 1, UniProt Q72547); test: Inhibition of HIV1 RT in presence of reconstituted template and viral nucleotides [digoxigenin (DIG)-dUTP, biotin-dUTP and dTTP] incubated for 1 hr by ELISA method

| SMILES | EC50 [1] | EC50 [2] | EC50 [6] | EC50 [7] | Ratio EC50 [8] | Ratio EC50 [9] | Ratio EC50 [10] | also measured |
| --- | --- | --- | --- | --- | --- | --- | --- | --- |
| Cc1cc(/C=C/C#N)cc(C)c1Nc1ccnc(Nc2ccc(C#N)cc2)n1 [RILPIVIRINE] | > 3870 nM | 90 nM | 60 nM | – | – | – | – | solubility [3]: < 1 µg/mL; solubility [4]: 103 µg/mL (≈ 281 µM); solubility [5]: < 1 µg/mL |
| Cc1ccnc2c1NC(=O)c1cccnc1N2C1CC1 [NEVIRAPINE] | 3760 nM | > 9510 nM | > 9510 nM | 87.9 nM | 43 | >108 | >108 | – |
| Cc1cc(C#N)cc(C)c1Oc1nc(Nc2ccc(C#N)cc2)nc(N)c1Br [ETRAVIRINE] | 1240 nM | 530 nM | 370 nM | – | – | – | – | EC50 [11]: 20.5 nM; solubility [3]: < 1 µg/mL; solubility [4]: 127 µg/mL (≈ 292 µM); solubility [5]: < 1 µg/mL; EC50 [12]: 5.38 nM; solubility [13]: < 1 µg/mL; EC50 [14]: 15.7 nM; EC50 [15]: 2.35 nM |
| Cc1cn([C@H]2C[C@H](N=[N+]=[N-])[C@@H](CO)O2)c(=O)[nH]c1=O [ZIDOVUDINE] | 1 nM | 5.1 nM | 4.9 nM | 12.7 nM | 0.1 | 0.4 | 0.4 | – |
| C[C@H](Cn1cnc2c(N)ncnc21)OCP(=O)(O)O [TENOFOVIR ANHYDROUS] | 2170 nM | 3760 nM | 3310 nM | 4140 nM | 0.5 | 0.9 | 0.8 | – |
| Cc1cc(/C=C/C#N)cc(C)c1Oc1nc(NC2CCN(Cc3ccc(C#N)cc3)CC2)nc2sccc12 | – | – | – | – | – | – | – | selectivity ratio [16]: 625; EC50 [11]: 117 nM; CC50 (MT4): 7740 nM; EC50 [12]: 21.3 nM; EC50 [17]: 12.4 nM; EC50 [18]: 138 nM; EC50 [14]: 32.8 nM; EC50 [15]: 17.3 nM; selectivity ratio [19]: 56; EC50 [20]: 32.6 nM; EC50 [21]: 36.3 nM |
| Cc1cc(/C=C/C#N)cc(C)c1Oc1nc(NC2CCN(Cc3ccc(S(N)(=O)=O)cc3)CC2)nc2ccsc12 | > 5530 nM | 860 nM | 1220 nM | – | – | – | – | IC50 [22]: 350 nM; IC50 [23]: 99 nM; IC50 [24]: 191 nM; IC50 [25]: 301 nM; IC50 [26]: 149 nM; IC50 [27]: 107 nM; IC50 [28]: 101 nM |
